Experimental data reported in the Deep4Chem optical property database.

Assay: solvent given as SMILES

CC1=c2cc3c(cc2=[N+]2C1=Cc1c4ccccc4c(C)n1[B-]2(F)F)C1=Cc2c4ccccc4c(C)n2[B-](F)(F)[N+]1=C3C
absorption maximum (in ClC(Cl)Cl): 848 nm

Cc1cc(O)c(C(=O)/C=C/c2ccccc2)c(=O)o1
absorption maximum (in CC#N): 356 nm | absorption maximum (in ClCCl): 358 nm

CCN(CC)c1ccc2c(-c3ccccc3C(=O)O)c3c([o+]c2c1)/C(=C/c1ccc(N2CCCC2)s1)CCC3
absorption maximum (in ClCCl): 738 nm

CCOC(=O)CCCCCn1c2ccc(Cl)cc2c(=O)c2cc3c(cc21)c(=O)c1cc(Cl)ccc1n3CCCCCC(=O)OCC
absorption maximum (in CO): 534 nm

COc1ccc(N(c2ccc(/C=C(\C)c3ccccc3)cc2)c2ccc(OC)cc2)cc1
absorption maximum (in Cc1ccccc1): 347 nm

COCCOc1ccc(OCCOC)c(C=O)c1
absorption maximum (in CC(C)(C)O): 350 nm | absorption maximum (in CC(C)CO): 350 nm | absorption maximum (in CC(C)O): 349 nm | absorption maximum (in CCCCO): 349 nm | absorption maximum (in CCCO): 349 nm | absorption maximum (in CCO): 349 nm | absorption maximum (in CN(C)C=O): 350 nm | absorption maximum (in CNC=O): 350 nm | absorption maximum (in CO): 348 nm | absorption maximum (in NC=O): 353 nm | absorption maximum (in O): 349 nm

CCCCCCOc1cc(C=C2C(=C(C#N)C#N)c3ccccc3C2=C(C#N)C#N)c(OCCCCCC)cc1C=C1C(=C(C#N)C#N)c2ccccc2C1=C(C#N)C#N
absorption maximum (in ClCCl): 542 nm

c1ccc2c(c1)ccc1ccc3ccc4ccccc4c3c12
absorption maximum (in ClC(Cl)Cl): 393 nm

COc1ccccc1C1=[N+]2C(=Cc3c4cc5ccccc5cc4c(-c4ccccc4OC)n3[B-]2(F)F)c2cc3ccccc3cc21
absorption maximum (in C1CCOC1): 738 nm

COc1ccc(C2=[N+]3C(=Nc4c(-c5ccccc5)cc(-c5ccc(OC)cc5)n4[B-]3(F)F)C(c3ccccc3)=C2)cc1
absorption maximum (in ClC(Cl)Cl): 688 nm | absorption maximum (in ClCCl): 688 nm

N#Cc1nn(-c2c(Cl)cccc2Cl)nc1N1CCCC1
absorption maximum (in CC#N): 317 nm

Cn1c(/C=C/c2ccc(/C=C/c3nc4ccccc4[nH]3)cc2)[n+](C)c2ccccc21
absorption maximum (in C1CCOC1): 363 nm | absorption maximum (in CC#N): 377 nm | absorption maximum (in CC(C)=O): 386 nm | absorption maximum (in CN(C)C=O): 389 nm | absorption maximum (in CO): 391 nm | absorption maximum (in CS(C)=O): 392 nm | absorption maximum (in O): 376 nm

c1cc2ccc1-c1ccc(cc1)-c1ccc(s1)-c1ccc(cc1)-c1ccc(cc1)-c1ccc(s1)-c1ccc(cc1)-c1ccc(cc1)-c1ccc(s1)-c1ccc(cc1)-c1ccc(cc1)-c1ccc-2s1
absorption maximum (in C1CCOC1): 354 nm

CC(C)c1cc(C(C)C)c(B2c3ccccc3Oc3cc(N4c5ccccc5C5(c6ccccc6-c6ccccc65)c5ccccc54)ccc32)c(C(C)C)c1
absorption maximum (in Cc1ccccc1): 430 nm

O=[N+]([O-])c1ccc(N/C=C/C=[NH+]c2ccc([N+](=O)[O-])cc2)cc1
absorption maximum (in CS(C)=O): 388 nm

Cc1cc(=O)oc2cc3c4ccccc4c4ccccc4c3cc12
absorption maximum (in C1CCOC1): 378 nm | absorption maximum (in CC#N): 375 nm | absorption maximum (in CO): 377 nm | absorption maximum (in CS(C)=O): 378 nm | absorption maximum (in Cc1ccccc1): 381 nm | absorption maximum (in ClC(Cl)Cl): 362 nm

Cc1cc(-c2ccc(-c3ccccc3)cc2)cc(C)[o+]1
absorption maximum (in ClCCl): 402 nm

Cc1cc(C)c(B(c2cc3ccc4cccc5ccc(c2)c3c45)c2c(C)cc(C)cc2C)c(C)c1
absorption maximum (in Cc1ccccc1): 413 nm

COC(=O)/C=C/c1sc(-c2ccc(N(C)C)cc2)c(-c2ccc(OC)cc2)c1O
absorption maximum (in CC#N): 451 nm

CCCCCCc1ccc(/C=C/c2ccc(CCCCCC)s2)s1
absorption maximum (in Cc1ccccc1): 356 nm

CCCCN1C(=O)c2cc(Br)c3c4c(Br)c(Br)c5c6c(cc(Br)c(c7c(Br)c(Br)c(c2c37)C1=O)c64)C(=O)N(CCCC)C5=O
absorption maximum (in ClC(Cl)Cl): 534 nm

CCn1c2ccccc2c2cc3c(cc21)c1ccccc1n3CC
absorption maximum (in ClC(Cl)Cl): 419 nm

CN(C)c1ccc(C#Cc2cc(C#Cc3ccc(N(C)C)cc3)c3ccc4c(C#Cc5ccc(C(F)(F)F)cc5)cc(C#Cc5ccc(N(C)C)cc5)c5ccc2c3c54)cc1
absorption maximum (in ClCCl): 506 nm

CCN(CC)c1ccc2nc3c4ccccc4c(=O)cc-3oc2c1
absorption maximum (in C1COCCO1): 519 nm | absorption maximum (in CC#N): 535 nm | absorption maximum (in CC(C)=O): 533 nm | absorption maximum (in CCCCCC): 508 nm | absorption maximum (in CCO): 549 nm | absorption maximum (in CCOC(C)=O): 524 nm | absorption maximum (in CO): 553 nm | absorption maximum (in CS(C)=O): 552 nm | absorption maximum (in Cc1ccccc1): 524 nm | absorption maximum (in ClCCl): 539 nm

CCn1c(-c2ccc(OC)cc2)c(-c2ccc3ccccc3c2)c(-c2ccc3ccccc3c2)c1-c1ccc(OC)cc1
absorption maximum (in CCOC(C)=O): 259 nm

F[B-]1(F)n2c(ccc2N2CCOCC2)C(c2ccccc2)=C2C=CC(N3CCOCC3)=[N+]21
absorption maximum (in CC#N): 566 nm | absorption maximum (in CCCCCC): 573 nm | absorption maximum (in CCOC(C)=O): 570 nm | absorption maximum (in CO): 561 nm | absorption maximum (in ClCCl): 572 nm

CN(C)c1cc(C#N)c(N(C)C)c(C#N)c1
absorption maximum (in C1CCCCC1): 387.45 nm | absorption maximum (in C1CCOC1): 390.47 nm | absorption maximum (in C1COCCO1): 391.08 nm | absorption maximum (in CC1COC(=O)O1): 394.48 nm | absorption maximum (in CC#N): 390.93 nm | absorption maximum (in CC(C)=O): 389.86 nm | absorption maximum (in CC(C)OC(C)C): 386.7 nm | absorption maximum (in CCC#N): 391.08 nm | absorption maximum (in CCC(C)C): 385.21 nm | absorption maximum (in CCCCCC): 386.7 nm | absorption maximum (in CCCCCCCCO): 393.39 nm | absorption maximum (in CCCCCOCCCCC): 388.5 nm | absorption maximum (in CCCCOC(C)=O): 389.86 nm | absorption maximum (in CCCCOCCCC): 387.6 nm | absorption maximum (in CCCOCCC): 389.86 nm | absorption maximum (in CCO): 391.7 nm | absorption maximum (in CCOC(C)=O): 389.71 nm | absorption maximum (in CCOCC): 390.62 nm | absorption maximum (in CN(C)C=O): 393.55 nm | absorption maximum (in CO): 392.31 nm | absorption maximum (in CS(C)=O): 396.83 nm | absorption maximum (in Cc1ccccc1): 395.26 nm | absorption maximum (in ClCCCl): 394.48 nm | absorption maximum (in ClCCl): 397.3 nm | absorption maximum (in N#Cc1ccccc1): 399.36 nm | absorption maximum (in O): 386.85 nm | absorption maximum (in OCC(O)CO): 403.39 nm | absorption maximum (in c1ccccc1): 395.73 nm

CCC12C(=C3C(=C4c5ccc(-c6ccc(C)s6)cc5S(=O)(=O)C41CC)C(F)(F)C(F)(F)C3(F)F)c1ccc(-c3ccc(C)s3)cc1S2(=O)=O (stereo not given)
absorption maximum (in C1COCCO1): 506 nm | absorption maximum (in CC#N): 507 nm | absorption maximum (in CCCCCC): 489 nm | absorption maximum (in CCO): 508 nm | absorption maximum (in CS(C)=O): 525.37 nm | absorption maximum (in ClC(Cl)(Cl)Cl): 497.35 nm | absorption maximum (in ClCCl): 507.67 nm

CC1(C)c2ccccc2N(c2ccc(-c3nnc(-c4ccccc4O)o3)cc2)c2ccccc21
absorption maximum (in C1CCOC1): 361 nm | absorption maximum (in C1COCCO1): 363 nm | absorption maximum (in CC#N): 358 nm | absorption maximum (in CC(C)=O): 361 nm | absorption maximum (in CCCCCC): 362 nm | absorption maximum (in CCO): 361 nm | absorption maximum (in CCOC(C)=O): 360 nm | absorption maximum (in CN(C)C=O): 360 nm | absorption maximum (in CS(C)=O): 364 nm | absorption maximum (in Cc1ccccc1): 362 nm | absorption maximum (in ClC(Cl)Cl): 365 nm | absorption maximum (in ClCCCl): 368 nm | absorption maximum (in ClCCl): 366 nm | absorption maximum (in Clc1ccccc1): 367 nm

CN1CCN(CCCN2c3ccccc3Sc3ccc(Cl)cc32)CC1
absorption maximum (in CC#N): 314 nm | absorption maximum (in CO): 313 nm | absorption maximum (in O): 309 nm

CCN(CC)c1ccc(-c2nc3c4ccccc4n(C)c3nc2-c2ccc([B-](F)(c3c(C)cc(C)cc3C)c3c(C)cc(C)cc3C)cc2)cc1
absorption maximum (in C1CCOC1): 411.11 nm

Cc1ccc(N(c2cc(C(C)(C)C)ccc2C)c2ccc3ccc4c(N(c5ccc(C)cc5C)c5cc(C(C)(C)C)ccc5C)ccc5ccc2c3c54)c(C)c1
absorption maximum (in Cc1ccccc1): 431 nm

COc1ccc(/C=C/C(=O)c2c(O)cc(C)oc2=O)cc1
absorption maximum (in CC#N): 380 nm | absorption maximum (in ClCCl): 384 nm

c1ccc(COc2cc(C[n+]3ccc(-c4cc[n+](Cc5cc(OCc6ccccc6)cc(OCc6ccccc6)c5)cc4)cc3)cc(OCc3ccccc3)c2)cc1
absorption maximum (in CC#N): 261 nm

CCOC(=O)c1cc(C(=O)OCC)c2cc(C(=O)O)ccc2n1
absorption maximum (in CCO): 316 nm

CN(C)c1ccc(/C=C/c2cc(/C=C/c3ccc(N(C)C)cc3)nc(N)n2)cc1
absorption maximum (in Cc1ccccc1): 414 nm | absorption maximum (in ClC(Cl)Cl): 426 nm

c1ccc(-n2c3ccccc3c3cc(-c4cccc(-n5c6cccnc6c6c7sc8ccccc8c7ccc65)c4)ccc32)cc1
absorption maximum (in ClCCl): 365 nm

CC(=O)c1ccc2ccc3c(NCCC(=O)NCCCCCCc4nc5c(=O)[nH]c(N)nc5n4[C@H]4C[C@H](O)[C@@H](CO)O4)ccc4ccc1c2c43
absorption maximum (in C1CCOC1): 451 nm | absorption maximum (in CC#N): 440 nm | absorption maximum (in CC(C)O): 452 nm | absorption maximum (in CCO): 451 nm | absorption maximum (in CN(C)C=O): 452 nm | absorption maximum (in CO): 447 nm | absorption maximum (in CS(C)=O): 456 nm | absorption maximum (in O): 460 nm | absorption maximum (in OCC(O)CO): 464 nm

CCCCC(CC)COc1cc(OCC(CC)CCCC)c2c#cc3ccc4c(c3)c3cc(c#cc5cc(c#cc6ccc7c(c6)c6cc(c#cc1c2)ccc6n7CC(CC)CCCC)c(C(CCCC)OCCC)cc5C(CCCC)OCCC)ccc3n4CC(CC)CCCC (stereo not given)
absorption maximum (in ClCCl): 340 nm

C[Si](C)(C)c1cccc2ccccc12
absorption maximum (in C1CCCCC1): 294 nm

COc1ccc2c(-c3nc(-c4ccccc4F)no3)cc(=O)oc2c1
absorption maximum (in CCO): 333 nm | absorption maximum (in ClC(Cl)Cl): 339 nm

c1ccc(-c2nc(-c3ccccc3)nc(-c3ccc(-n4c5ccc(-n6c7ccccc7c7ccccc76)cc5c5cc(-n6c7ccccc7c7ccccc76)ccc54)cc3)n2)cc1
absorption maximum (in Cc1ccccc1): 368 nm

Cc1ccc(C2=C(c3ccc(C)cc3)c3cccc4c3c(cc3nc5ccccc5nc34)O2)cc1
absorption maximum (in ClCCl): 498 nm

COc1ccc(-c2nc(-c3cccc(C#N)c3)[nH]c2-c2ccc(OC)cc2)cc1
absorption maximum (in CO): 327 nm

c1cc2ccc1-c1ccc(cc1)-c1ccc([se]1)-c1ccc(cc1)-c1ccc(cc1)-c1ccc([se]1)-c1ccc(cc1)-c1ccc(cc1)-c1ccc-2[se]1
absorption maximum (in C1CCOC1): 365 nm

c1ccc(-c2nc(-c3ccc(N(c4ccccc4)c4ccccc4)cc3)n3ccccc23)cc1
absorption maximum (in C1CCCCC1): 352 nm | absorption maximum (in CC#N): 350 nm | absorption maximum (in CO): 348 nm | absorption maximum (in ClCCl): 353 nm | absorption maximum (in O): 360 nm
